One assay has as its system NUGC3 cells (p53 Y220C). Put plainly: Cell Proliferation Assay (CellTiter-Glo), NUGC3 p53 Y220C. Conditions: Homo sapiens, NUGC-3, 120 h, 5 days, read-out: CTG NUGC3 P53 Y220C IC50. It is filed as cell-based. Here is the method: (§1) Inducible p53 Y220C and R273H constructs (Tet-One inducible expression system; Takara) were stably expressed in NCIH1299 cells by lentiviral transduction. NUGC3, A549, BxPC3, T3M4, HuH7, HCC2935, MFE296, NCIH1299, NCIH1299-inducible p53 Y220C, and NCIH1299-inducible p53 R273H cell lines were used for cell proliferation assay. 250-500 cells were seeded in each well of 384 plate and then compounds were dispensed into each well using Echo or Tecan. After 5 days of incubation, equal volume of CellTiter-Glo reagent (G7570; Promega) was added into each well and the plate was incubated at room temperature for 10 minutes with shaking. The luminescent signal was measured by PheraStar microplate reader and IC50 was calculated.

In assay [1] the target is T1, p53 Y220C mutant protein (amino acid residues 94-293) (Homo sapiens, UniProt P04637, Y220C).
T1 construct: p53 Y220C mutant protein (amino acid residues 94-293)
T1 sequence (P04637 94-293, stated change not applied): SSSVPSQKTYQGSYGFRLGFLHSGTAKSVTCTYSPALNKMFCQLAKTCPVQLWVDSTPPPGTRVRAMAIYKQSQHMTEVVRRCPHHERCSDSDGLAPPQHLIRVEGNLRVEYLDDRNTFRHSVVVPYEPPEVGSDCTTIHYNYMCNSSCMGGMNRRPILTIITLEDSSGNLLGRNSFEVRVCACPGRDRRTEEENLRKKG
Put plainly: Surface Plasmon Resonance (SPR) assay, p53 Y220C Kd_kinetic. The conditions noted are these: multi-cycle kinetics, 16 or 20 °C, pH 7.5, 1:1 binding model. Here is the method:
SPR experiments are performed on a Biacore 8K instrument. […] Compounds are 2-fold, 7-point serial diluted; the top concentration varies depending on the potency. Compound binding affinities are measured in the multi-cycle kinetics mode, at 30 μL/min flow rate with 60 seconds association time and 120 seconds dissociation time. The running buffer contains 50 mM Tris, pH 7.5, 100 mM NaCl, 1 mM DTT, 0.01% Brij35, 0.05% Tween-20 and 1% DMSO. The assay temperature is maintained at 16 or 20 °C and data are fit into the 1:1 binding model using the Biacore Insight Evaluation software.

Assay [2] relates to NCIH1299-inducible p53 Y220C cells. Put plainly: Cell Proliferation Assay (CellTiter-Glo), NCIH1299-inducible p53 Y220C. In kind it is cell-based. Conditions: Homo sapiens, NCI-H1299, 120 h, 5 days, read-out: CTG H1299 P53 Y220C IC50. Here is the method: as §1
In a further assay the target is p53 Y220C (Homo sapiens, UniProt P04637, Y220C). Put plainly: Luciferase Reporter Assay, p53 Y220C (NCIH1299 cells with inducible p53 Y220C and p53 response element-luciferase). It is filed as cell-based. Conditions: 6 hour compound treatment, read-out: Luc P53 Y220C AC50. How it is done:
Luciferase reporter (Luc) driven by p53 response element (LTV-p53-Luc (SKU #: LTLR007); G&P Biosciences) and inducible p53 Y220C construct (Tet-One inducible expression system; Takara) were stably expressed in NCIH1299 cells by lentiviral transduction. The cells were then used for p53 reporter assay. 5,000 cells were seeded in each well of 384 plate and cultured in 0.5 ug/mL doxycycline (D3072; Sigma) containing medium for 24 hours before compound treatment. After 6 hour of compound treatment, equal volume of One-Glo reagent (E6110; Promega) was added to each well and the plate was incubated for 5 minutes with shaking at room temperature. The luciferase activity was immediately measured with PheraStar microplate reader. Luciferase activity was stimulated by 10 uM of a tool compound as positive control and AC50 was calculated.
Background: In a reporter assay the amount or activity of a reporter protein is the signal.

For orientation: IC50 means the point on the concentration scale where inhibition reaches its midpoint. As usually defined, the Kd is the free concentration of one partner at which half of the binding sites on the other are occupied at equilibrium, for simple one-to-one binding. Higher therefore signals lower affinity. What is called AC50 is the concentration at which the activity in the assay is half-maximal. Turning to `C[C@@H](NC(=O)C1CC1)c1nc(-c2cc3c(N[C@@H]4CCN(C)C[C@@H]4F)cccn3c2SC(F)(F)F)no1` (relative stereo) [Example 51, N-[(1R*)-1-[3-(8-{[(3S,4R)-3-fluoro-1-methylpiperidin-4-yl]amino}-3-[(trifluoromethyl)sulfanyl]indolizin-2-yl)-1,2,4-oxadiazol-5-yl]ethyl]cyclopropanecarboxamide], the IC50 (with NUGC3 cells (p53 Y220C); in assay [2]) was at least 3000 nM throughout. For the same compound, in assay [1], the Kd was 10 to 100 nM. Besides, the AC50 at p53 Y220C is at least 3000 nM.

Turning to `CN1CC[C@@H](Nc2cccn3c(SC(F)(F)F)c(-c4noc(CNC(=O)c5cnn(C(C)(C)C)c5)n4)cc23)[C@@H](F)C1` [Example 2, 1-tert-butyl-N-{[3-(8-{[(3S,4R)-3-fluoro-1-methylpiperidin-4-yl]amino}-3-[(trifluoromethyl)sulfanyl]indolizin-2-yl)-1,2,4-oxadiazol-5-yl]methyl}pyrazole-4-carboxamide], the IC50 (with NUGC3 cells (p53 Y220C); in assay [2]) was below 750 nM in each case. In assay [1], the Kd is below 10 nM. Besides, the AC50 on p53 Y220C is below 750 nM.

With `CN1CC[C@@H](Nc2cccn3c(SC(F)(F)F)c(-c4noc(CNC(=O)C5CC5)n4)cc23)[C@@H](F)C1` [Example 3, N-{[3-(8-{[(3S,4R)-3-fluoro-1-methylpiperidin-4-yl]amino}-3-[(trifluoromethyl)sulfanyl]indolizin-2-yl)-1,2,4-oxadiazol-5-yl]methyl}cyclopropanecarboxamide], the IC50 (in the assay on NUGC3 cells (p53 Y220C); in assay [2]) was below 750 nM in each case. Further, the Kd in assay [1] is below 10 nM. Further, the AC50 on p53 Y220C was below 750 nM.

As to `CN1CC[C@@H](Nc2cccn3c(SC(F)(F)F)c(-c4nsc(CNC(=O)C5CC5)n4)cc23)[C@@H](F)C1` [Example 4, N-{[3-(8-{[(3S,4R)-3-fluoro-1-methylpiperidin-4-yl]amino}-3-[(trifluoromethyl)sulfanyl]indolizin-2-yl)-1,2,4-thiadiazol-5-yl]methyl}cyclopropanecarboxamide], the IC50 (in the assay on NUGC3 cells (p53 Y220C); in assay [2]) was at least 3000 nM throughout. The Kd in assay [1] fell in the range of 10 to 100 nM. For the same compound, on p53 Y220C, the AC50 is at least 3000 nM.

As for `CN1CC[C@@H](Nc2cccn3c(SC(F)(F)F)c(-c4nsc(CNC(=O)c5cnn(C(C)(C)C)c5)n4)cc23)[C@@H](F)C1` [Example 5, 1-tert-butyl-N-{[3-(8-{[(3S,4R)-3-fluoro-1-methylpiperidin-4-yl]amino}-3-[(trifluoromethyl)sulfanyl]indolizin-2-yl)-1,2,4-thiadiazol-5-yl]methyl}pyrazole-4-carboxamide], the half-maximal inhibitory concentration (IC50) (in the assay on NUGC3 cells (p53 Y220C); in assay [2]) was at least 3000 nM in each case. Further, the Kd in assay [1] lay within 100 to 1000 nM. Besides, the AC50 at p53 Y220C is at least 3000 nM.

Regarding `CN1CC[C@@H](Nc2cccn3c(SC(F)(F)F)c(-c4nsc(CNC(=O)c5ccn(C(C)(C)C)c5)n4)cc23)[C@@H](F)C1` [Example 6, 1-tert-butyl-N-{[3-(8-{[(3S,4R)-3-fluoro-1-methylpiperidin-4-yl]amino}-3-[(trifluoromethyl)sulfanyl]indolizin-2-yl)-1,2,4-thiadiazol-5-yl]methyl}pyrrole-3-carboxamide], the IC50 (in the assay with NUGC3 cells (p53 Y220C); in assay [2]) was at least 3000 nM throughout. Also, the equilibrium dissociation constant (Kd) in assay [1] is at least 1000 nM. Besides, the AC50 at p53 Y220C was at least 3000 nM.

Turning to `CN1CC[C@@H](Nc2cccn3c(SC(F)(F)F)c(-c4noc(CNC(=O)c5ccn(C(C)(C)C)c5)n4)cc23)[C@@H](F)C1` [Example 7, 1-tert-butyl-N-{[3-(8-{[(3S,4R)-3-fluoro-1-methylpiperidin-4-yl]amino}-3-[(trifluoromethyl)sulfanyl]indolizin-2-yl)-1,2,4-oxadiazol-5-yl]methyl}pyrrole-3-carboxamide], the IC50 (in the assay with NUGC3 cells (p53 Y220C); in assay [2]) was below 750 nM each time. Moreover, the Kd in assay [1] was below 10 nM. The AC50 at p53 Y220C is below 750 nM.

For `CN1CC[C@@H](Nc2cccn3c(SC(F)(F)F)c(-c4noc(CNC(=O)C5CC(O)C5)n4)cc23)[C@@H](F)C1` (stereo partly drawn) [Example 8, (1r,3r)-N-{[3-(8-{[(3S,4R)-3-fluoro-1-methylpiperidin-4-yl]amino}-3-[(trifluoromethyl)sulfanyl]indolizin-2-yl)-1,2,4-oxadiazol-5-yl]methyl}-3-hydroxycyclobutane-1-carboxamide], the values for the IC50 (in the assay with NUGC3 cells (p53 Y220C); in assay [2]) were 1500 to 3000 nM and 750 to 1500 nM, respectively. For the same compound, in assay [1], the Kd is below 10 nM. Further, at p53 Y220C, the AC50 lay in the range of 1500 to 3000 nM.

Regarding `COc1ccc2n[nH]c(CC(=O)NCc3nc(-c4cc5c(N[C@@H]6CCN(C)C[C@@H]6F)cccn5c4SC(F)(F)F)no3)c2c1` [Example 9, N-{[3-(8-{[(3S,4R)-3-fluoro-1-methylpiperidin-4-yl]amino}-3-[(trifluoromethyl)sulfanyl]indolizin-2-yl)-1,2,4-oxadiazol-5-yl]methyl}-2-(5-methoxy-1H-indazol-3-yl)acetamide], the IC50 (in the assay with NUGC3 cells (p53 Y220C); in assay [2]) was 1500 to 3000 nM throughout. The Kd in assay [1] was 100 to 1000 nM. Also, the AC50 on p53 Y220C was at least 3000 nM.

On to `CN1CC[C@@H](Nc2cccn3c(SC(F)(F)F)c(-c4noc(CNC(=O)C5CC(F)(F)C5)n4)cc23)[C@@H](F)C1` [Example 10, 3,3-difluoro-N-{[3-(8-{[(3S,4R)-3-fluoro-1-methylpiperidin-4-yl]amino}-3-[(trifluoromethyl)sulfanyl]indolizin-2-yl)-1,2,4-oxadiazol-5-yl]methyl}cyclobutane-1-carboxamide], for which the IC50 (with NUGC3 cells (p53 Y220C); in assay [2]) was at least 3000 nM in each case. Further, at p53 Y220C, the AC50 was in the range of 1500 to 3000 nM.

For the compound `CN1CC[C@@H](Nc2cccn3c(SC(F)(F)F)c(-c4noc(CNC(=O)C5(NC(=O)OC(C)(C)C)CC5)n4)cc23)[C@@H](F)C1` [Example 22, tert-butyl N-[1-({[3-(8-{[(3S,4R)-3-fluoro-1-methylpiperidin-4-yl]amino}-3-[(trifluoromethyl)sulfanyl]indolizin-2-yl)-1,2,4-oxadiazol-5-yl]methyl}carbamoyl)cyclopropyl]carbamate], the IC50 in the assay on NUGC3 cells (p53 Y220C) was 1500 to 3000 nM; in assay [2] it was at least 3000 nM. The AC50 at p53 Y220C was at least 3000 nM.

In the case of `CN1CC[C@@H](Nc2cccn3c(SC(F)(F)F)c(-c4noc(CNC(=O)C5(C#N)CC5)n4)cc23)[C@@H](F)C1` [Example 28, 1-cyano-N-{[3-(8-{[(3S,4R)-3-fluoro-1-methylpiperidin-4-yl]amino}-3-[(trifluoromethyl)sulfanyl]indolizin-2-yl)-1,2,4-oxadiazol-5-yl]methyl}cyclopropane-1-carboxamide], the IC50 (in the assay with NUGC3 cells (p53 Y220C); in assay [2]) was below 750 nM in each case. Moreover, at p53 Y220C, the AC50 is below 750 nM.

For the compound `CN1CC[C@@H](Nc2cccn3c(SC(F)(F)F)c(-c4noc(CNC(=O)c5cnn(C)c5)n4)cc23)[C@@H](F)C1` [Example 85], the IC50 with NUGC3 cells (p53 Y220C) is below 750 nM. Further, in assay [1], the Kd was below 10 nM. On p53 Y220C, the AC50 was below 750 nM.

Consider `CN1CC[C@@H](Nc2cccn3c(SC(F)(F)F)c(-c4cc(CNC(=O)c5cnn(C(C)(C)C)c5)no4)cc23)[C@@H](F)C1` [Example 89], for which the IC50 in the assay with NUGC3 cells (p53 Y220C) was below 750 nM. The Kd in assay [1] was below 10 nM. Also, the AC50 at p53 Y220C was below 750 nM.

`CN1CC[C@@H](Nc2cccn3c(SC(F)(F)F)c(-c4noc(CNC(=O)c5nsc(N(C)C)n5)n4)cc23)[C@@H](F)C1` [Example 93]: in the assay on NUGC3 cells (p53 Y220C), the IC50 was below 750 nM. The same compound registered a Kd in assay [1] below 10 nM. Also, on p53 Y220C, the AC50 is below 750 nM.

Take `CN1CC[C@@H](Nc2cccn3c(SC(F)(F)F)c(-c4noc(CNC(=O)c5ccn(C6(C)CCOCC6)c5)n4)cc23)[C@@H](F)C1` [Example 94]: the IC50 with NUGC3 cells (p53 Y220C) was below 750 nM. Also, the Kd in assay [1] was below 10 nM. On p53 Y220C, the AC50 was below 750 nM.

For the compound `Cc1noc(C(=O)NCc2nc(-c3cc4c(N[C@@H]5CCN(C)C[C@@H]5F)cccn4c3SC(F)(F)F)no2)n1` [Example 98], the IC50 with NUGC3 cells (p53 Y220C) fell in the range of 750 to 1500 nM. In assay [1], the Kd was below 10 nM. The AC50 at p53 Y220C was in the range of 750 to 1500 nM.

The values are drawn from US20260347353A1, “INDOLIZINE DERIVATIVES FOR TREATING CANCER” (Antares Therapeutics, Inc., priority 2022, published 2026).
